The subject of the test is HCT-116. In words: Cytotoxicity against human HCT116 after 72 hrs by MTS assay. As to conditions: HCT-116, 72 h. Format: functional, cell-based.

The values that follow come from ChEMBL document CHEMBL1158717, “A cytotoxic carotenoid from the marine sponge Prianos osiros” (J Nat Prod, 2005).

Values after ≈ are worked out from the molar mass of the structure shown.

Regarding `CC1=C(C#C/C(=C/C=C/C(C)=C/C=C/C=C(C)/C=C/C=C(\C)C(=O)/C=C2\C(C)(C)C[C@H](O)C[C@@]2(C)O)CO)C(C)(C)C[C@H](O)C1`, the IC50 stood at 4.38 µg/mL (≈ 7.12 µM).
